# Patent US20230241071A1, “COMBINATION TREATMENT OF LIVER DISORDERS” (Terns Pharmaceuticals, Inc., priority 2021, published 2023)
# “Also recorded” adds a separate entry of the source.
# Columns and labels:
# [1] = Multiple-ascending dose trial of Compound 1 in healthy participants: safety and PK; assay type: in vivo, human; settings: for Cmax / Tmax / AUC(0-t) / half-life: human, plasma; for Cmax / AUC(0-t): mean (CV %); for Tmax / half-life: median (min, max)
# Description: A multiple-ascending dose clinical trial of Compound 1 was performed.
# VAP-1 = biological target: T1, VAP-1 (Homo sapiens, UniProt Q16853); experiment: Compound 1 10 mg QD for 12 weeks in adults with non-cirrhotic NASH phenotype; assay type: in vivo
# T1 construct: from tissue; host or cells: plasma of trial patients
# T1 sequence (Q16853 29-763 limits assumed): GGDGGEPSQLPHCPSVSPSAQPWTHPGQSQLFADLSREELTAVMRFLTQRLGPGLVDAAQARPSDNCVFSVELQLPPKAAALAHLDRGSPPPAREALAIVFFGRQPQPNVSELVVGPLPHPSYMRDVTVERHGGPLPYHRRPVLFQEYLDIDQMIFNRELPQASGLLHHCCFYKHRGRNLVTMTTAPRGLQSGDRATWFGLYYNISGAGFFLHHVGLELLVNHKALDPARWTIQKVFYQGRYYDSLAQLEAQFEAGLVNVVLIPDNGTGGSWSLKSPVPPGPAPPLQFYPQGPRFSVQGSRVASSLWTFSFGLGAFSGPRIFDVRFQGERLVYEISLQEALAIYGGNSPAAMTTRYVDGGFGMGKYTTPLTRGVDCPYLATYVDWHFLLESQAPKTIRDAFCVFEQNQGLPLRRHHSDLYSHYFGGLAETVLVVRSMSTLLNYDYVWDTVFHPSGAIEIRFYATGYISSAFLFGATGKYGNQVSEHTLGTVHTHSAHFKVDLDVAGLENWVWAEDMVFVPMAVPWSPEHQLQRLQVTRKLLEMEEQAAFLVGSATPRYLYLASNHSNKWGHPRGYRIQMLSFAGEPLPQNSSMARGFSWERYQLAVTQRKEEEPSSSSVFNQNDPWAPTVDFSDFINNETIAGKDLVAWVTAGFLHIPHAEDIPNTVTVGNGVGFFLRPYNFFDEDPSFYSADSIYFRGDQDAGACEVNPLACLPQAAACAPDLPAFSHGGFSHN
# Description: Part 1 interim analysis primary endpoint was safety assessed by adverse events (AEs) and laboratory tests; percent change from baseline (BL) in plasma VAP-1 activity was a secondary endpoint. Exploratory imaging and blood-based biomarkers of liver inflammation and fibrosis were also assessed. Analyses of change (or percent change) from baseline used an ANCOVA model with change (or percent change) from baseline as the dependent variable including treatment group and randomization strata as fixed effects and baseline as a covariate.
# [2] = pH and solubilizer effect on solubility; assay type: physicochemical; settings: potassium salt; for solubility at 24 h: 25 °C, thermodynamic from solid
# Description: Solubility of compound 2 (potassium salt) was evaluated at various pH levels.
# [3] = 10 mg, 10 mg QD, Last day (of 14)
smiles,measurement,setting,value
"COC1CCN(c2ncc(OC/C(=C/F)CN)cn2)CC1 [Compound 1, (E)-3-fluoro-2-(((2-(4-methoxypiperidin-1-yl)pyrimidin-5-yl)oxy)methyl)prop-2-en-1-amine]",Subject incidence of TEAEs considered possibly treatment-related,[1]; 1 mg QD 7 days (n = 6),1 (16.7) n (%)
same,Subject incidence of any TEAE,[1]; 1 mg QD 7 days (n = 6),2 (33.3) n (%)
same,TEAE frequency: Back pain,[1]; 1 mg QD 7 days (n = 6),0
same,TEAE frequency: Catheter site inflammation,[1]; 1 mg QD 7 days (n = 6),0
same,TEAE frequency: Contusion,[1]; 1 mg QD 7 days (n = 6),0
same,TEAE frequency: Dermatitis contact,[1]; 1 mg QD 7 days (n = 6),1 (16.7)
same,TEAE frequency: Diarrhea,[1]; 1 mg QD 7 days (n = 6),0
same,TEAE frequency: Dizziness,[1]; 1 mg QD 7 days (n = 6),1 (16.7)
same,TEAE frequency: Medical device site reaction,[1]; 1 mg QD 7 days (n = 6),0
same,TEAE frequency: Rhinitis,[1]; 1 mg QD 7 days (n = 6),0
same,TEAE frequency: headache,[1]; 1 mg QD 7 days (n = 6),1 (12.5)
same,Subject incidence of TEAEs considered possibly treatment-related,[1]; 4 mg QD 7 days (n = 6),0 n (%)
same,Subject incidence of any TEAE,[1]; 4 mg QD 7 days (n = 6),2 (33.3) n (%)
same,TEAE frequency: Back pain,[1]; 4 mg QD 7 days (n = 6),0
same,TEAE frequency: Catheter site inflammation,[1]; 4 mg QD 7 days (n = 6),0
same,TEAE frequency: Contusion,[1]; 4 mg QD 7 days (n = 6),0
same,TEAE frequency: Dermatitis contact,[1]; 4 mg QD 7 days (n = 6),2 (33.3)
same,TEAE frequency: Diarrhea,[1]; 4 mg QD 7 days (n = 6),0
same,TEAE frequency: Dizziness,[1]; 4 mg QD 7 days (n = 6),0
same,TEAE frequency: Medical device site reaction,[1]; 4 mg QD 7 days (n = 6),0
same,TEAE frequency: Rhinitis,[1]; 4 mg QD 7 days (n = 6),0
same,TEAE frequency: headache,[1]; 4 mg QD 7 days (n = 6),0
same,time to steady state,[1]; 10 mg QD,7 days
same,Subject incidence of TEAEs considered possibly treatment-related,[1]; 10 mg QD 14 days (n = 6),0 n (%)
same,Subject incidence of any TEAE,[1]; 10 mg QD 14 days (n = 6),6 (100) n (%)
same,TEAE frequency: Back pain,[1]; 10 mg QD 14 days (n = 6),0
same,TEAE frequency: Catheter site inflammation,[1]; 10 mg QD 14 days (n = 6),0
same,TEAE frequency: Contusion,[1]; 10 mg QD 14 days (n = 6),0
same,TEAE frequency: Dermatitis contact,[1]; 10 mg QD 14 days (n = 6),0
same,TEAE frequency: Diarrhea,[1]; 10 mg QD 14 days (n = 6),0
same,TEAE frequency: Dizziness,[1]; 10 mg QD 14 days (n = 6),0
same,TEAE frequency: Medical device site reaction,[1]; 10 mg QD 14 days (n = 6),6 (100)
same,TEAE frequency: Rhinitis,[1]; 10 mg QD 14 days (n = 6),1 (16.7)
same,TEAE frequency: headache,[1]; 10 mg QD 14 days (n = 6),0
same,half-life versus dose,"[1]; 1, 4, 10 mg QD",increased with dose
same,"plasma PK exposure, dose proportionality",[1]; between dose groups on Day 1,greater than dose proportional
same,Cmax,"[1]; 1 mg, 1 mg QD, Day 1",0.568 ng/mL
same,Tmax,"[1]; 1 mg, 1 mg QD, Day 1",1.53 h
same,AUC(0-t),"[1]; 1 mg, 1 mg QD, Last day (of 7)",13.3 ng·h/mL
same,Cmax,"[1]; 1 mg, 1 mg QD, Last day (of 7)",2.75 ng/mL
same,Tmax,"[1]; 1 mg, 1 mg QD, Last day (of 7)",2.51 h
same,AUC(0-t),"[1]; 4 mg, 4 mg QD, Day 1",17.1 ng·h/mL
same,Cmax,"[1]; 4 mg, 4 mg QD, Day 1",5.11 ng/mL
same,Tmax,"[1]; 4 mg, 4 mg QD, Day 1",2.02 h
same,AUC(0-t),"[1]; 4 mg, 4 mg QD, Last day (of 7)",198 ng·h/mL
same,Cmax,"[1]; 4 mg, 4 mg QD, Last day (of 7)",18.6 ng/mL
same,Tmax,"[1]; 4 mg, 4 mg QD, Last day (of 7)",3.03 h
same,AUC(0-t),"[1]; 10 mg, 10 mg QD, Day 1",102 ng·h/mL
same,Cmax,"[1]; 10 mg, 10 mg QD, Day 1",17.7 ng/mL
same,Tmax,"[1]; 10 mg, 10 mg QD, Day 1",1.9 h
same,AUC(0-t),[1]; [3],656 ng·h/mL
same,Cmax,[1]; [3],47.5 ng/mL
same,Tmax,[1]; [3],3.98 h
same,half-life,"[1]; 1 mg QD, Last day (of 7)",2.27 h
same,half-life,"[1]; 4 mg QD, Last day (of 7)",6.71 h
same,half-life,"[1]; 10 mg QD, Last day (of 14)",13.3 h
same,Subject incidence of TEAEs considered possibly treatment-related,[1]; overall Compound 1 (n = 18),1 (5.6) n (%)
same,Subject incidence of any TEAE,[1]; overall Compound 1 (n = 18),10 (55.6) n (%)
same,TEAE frequency: Back pain,[1]; overall Compound 1 (n = 18),0
same,TEAE frequency: Catheter site inflammation,[1]; overall Compound 1 (n = 18),0
same,TEAE frequency: Contusion,[1]; overall Compound 1 (n = 18),0
same,TEAE frequency: Dermatitis contact,[1]; overall Compound 1 (n = 18),3 (16.7)
same,TEAE frequency: Diarrhea,[1]; overall Compound 1 (n = 18),0
same,TEAE frequency: Dizziness,[1]; overall Compound 1 (n = 18),1 (5.6)
same,TEAE frequency: Medical device site reaction,[1]; overall Compound 1 (n = 18),6 (33.3)
same,TEAE frequency: Rhinitis,[1]; overall Compound 1 (n = 18),1 (5.6)
same,TEAE frequency: headache,[1]; overall Compound 1 (n = 18),1 (5.6)
same,safety and tolerability,[1]; up to 10 mg QD for 14 days,mild (grade 1); also recorded: safe and well tolerated
same,"change from BL in cT1, liver fat fraction, liver enzymes, or cytokeratin-18 vs placebo",VAP-1; 10 mg QD 12 weeks,no statistically significant differences
same,safety and tolerability,VAP-1; 10 mg QD 12 weeks,well-tolerated with a safety profile similar to placebo
same,inhibition at 10 mg,"VAP-1; 10 mg QD, most subjects, by week 2, sustained through week 12, read-out: inhibition of plasma VAP-1 activity",> 98%
"N#Cc1nn(-c2cc(Cl)c(Oc3n[nH]c(=O)c4ccccc34)c(Cl)c2)c(=O)[nH]c1=O [Compound 2, 2-(3,5-dichloro-4-((4-oxo-3,4-dihydrophthalazin-1-yl)oxy)phenyl)-3,5-dioxo-2,3,4,5-tetrahydro-1,2,4-triazine-6-carbonitrile]",solubility at 24 h,"[2]; 0.1N HCl with 2 wt % SLS, aqueous with cosolvent or surfactant or cyclodextrin, 0.1N HCl, with 2 wt % SLS",5.7 µg/mL
same,solubility at 24 h,"[2]; 0.1N HCl, simulated gastric fluid, without 2 wt % SLS",< 0.03 µg/mL
same,solubility at 24 h,"[2]; pH 2.0 buffer with 2 wt % SLS, pH 2, aqueous with cosolvent or surfactant or cyclodextrin, pH 2.0 buffer, with 2 wt % SLS",5.5 µg/mL
same,solubility at 24 h,"[2]; pH 2.0 buffer, pH 2, aqueous buffer, without 2 wt % SLS",< 0.07 µg/mL
same,solubility at 24 h,"[2]; pH 4.0 buffer with 2 wt % SLS, pH 4, aqueous with cosolvent or surfactant or cyclodextrin, pH 4.0 buffer, with 2 wt % SLS",10 µg/mL
same,solubility at 24 h,"[2]; pH 4.0 buffer, pH 4, aqueous buffer, without 2 wt % SLS",< 0.07 µg/mL
same,solubility at 24 h,"[2]; pH 6.0 buffer with 2 wt % SLS, pH 6, aqueous with cosolvent or surfactant or cyclodextrin, pH 6.0 buffer, with 2 wt % SLS",42.3 µg/mL
same,solubility at 24 h,"[2]; pH 6.0 buffer, pH 6, aqueous buffer, without 2 wt % SLS",2.2 µg/mL
same,solubility at 24 h,"[2]; pH 8.0 buffer with 2 wt % SLS, pH 8, aqueous with cosolvent or surfactant or cyclodextrin, pH 8.0 buffer, with 2 wt % SLS",302 µg/mL
same,solubility at 24 h,"[2]; pH 8.0 buffer, pH 8, aqueous buffer, without 2 wt % SLS",10.8 µg/mL
same,solubility at 24 h,"[2]; pH 10.0 buffer with 2 wt % SLS, pH 10, aqueous with cosolvent or surfactant or cyclodextrin, pH 10.0 buffer, with 2 wt % SLS",308 µg/mL
same,solubility at 24 h,"[2]; pH 10.0 buffer, pH 10, aqueous buffer, without 2 wt % SLS",10.2 µg/mL
same,Solubility,"[2]; pH 10.0 buffer, 24 h, with 2 wt % SLS, 25° C.",308.2 µg/mL
